Like-named read-outs stand apart in the source and are kept apart here.
Assays:
Format in all cases: biochemical
CDK1/CCNB1 = CDK1/CCNB1 (Homo sapiens, UniProt P06493); assay: CDK1 homogeneous time-resolved fluorescence (HTRF) kinase assay; settings: CDK1/CCNB; x = IC50 >250 nM; read-out: CDK1/CCNB IC50 (>250 nM column)
In short: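 0.5 nM CDK1/CCNB1 was preincubated 20 min at 23 °C with compound in HEPES pH-unspecified buffer (MgCl2, EGTA, DTT, Tween 20), then reacted 60 min with 1 mM ATP and 50 nM ULight-4E-BP1 (Thr37/46) peptide. EDTA-stopped reactions were detected with 2 nM Eu-anti-phospho antibody; IC50 from 11-point half-log titrations.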

CDK2/CCNE1 = CDK2/CCNE1 (Homo sapiens, UniProt P24941); assay: CDK2 homogeneous time-resolved fluorescence (HTRF) kinase assay; settings: CDK2/CCNE
In short: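 CDK2/CCNE1 (3 nM) preincubated 20 min at 23 °C with compound, then reacted 60 min at 23 °C with 1 mM ATP and 50 nM ULight-4E-BP1 (Thr37/46) peptide. Stopped with EDTA, phospho-peptide detected by Eu-anti-phospho antibody (665 nm or 665/615 ratio). IC50 from 11-point half-log titrations typically starting at 10 μM.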

CDK6/CCND1 = CDK6/CCND1 (Homo sapiens, UniProt Q00534); assay: CDK6 homogeneous time-resolved fluorescence (HTRF) kinase assay; settings: CDK6/CCND
CDK6/CCND1, sequence (Q00534 whole entry): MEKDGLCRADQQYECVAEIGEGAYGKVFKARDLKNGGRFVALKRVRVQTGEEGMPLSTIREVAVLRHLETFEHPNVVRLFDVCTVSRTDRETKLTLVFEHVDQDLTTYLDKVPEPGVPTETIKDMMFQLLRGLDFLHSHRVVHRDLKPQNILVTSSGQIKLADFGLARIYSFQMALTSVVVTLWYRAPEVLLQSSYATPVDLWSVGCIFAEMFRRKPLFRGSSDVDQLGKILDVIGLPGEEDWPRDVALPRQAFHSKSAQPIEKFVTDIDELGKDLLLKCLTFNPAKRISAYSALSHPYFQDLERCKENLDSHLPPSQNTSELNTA
CDK6/CCND1, sequence (P24385 whole entry partner): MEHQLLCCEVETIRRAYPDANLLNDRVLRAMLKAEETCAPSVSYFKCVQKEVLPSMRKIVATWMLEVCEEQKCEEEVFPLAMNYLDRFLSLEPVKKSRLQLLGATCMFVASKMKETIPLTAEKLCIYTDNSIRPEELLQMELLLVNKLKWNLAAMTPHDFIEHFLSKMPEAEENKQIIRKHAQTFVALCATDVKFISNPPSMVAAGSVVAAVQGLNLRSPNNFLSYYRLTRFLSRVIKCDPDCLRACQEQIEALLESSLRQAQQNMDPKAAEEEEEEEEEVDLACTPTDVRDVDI
In short: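 Enzyme pre-incubated 20 min at 23 °C with compound, then reacted 60 min at 23 °C with 1 mM ATP and 50 nM ULight-4E-BP1 (Thr37/46) peptide; 1 nM enzyme, 1% DMSO. EDTA-stopped, Eu-anti-phospho antibody TR-FRET read (665 nm or 665/615 ratio); 11-point half-log titration from 10 μM gave IC50.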

CDK4/CCND3 = CDK4/CCND3 (Homo sapiens, UniProt P11802); assay: CDK4 homogeneous time-resolved fluorescence (HTRF) kinase assay; settings: CDK4/CCND; x = IC50 >250 nM; read-out: CDK4/CCND IC50 (>250 nM column)
CDK4/CCND3, sequence (P11802 whole entry): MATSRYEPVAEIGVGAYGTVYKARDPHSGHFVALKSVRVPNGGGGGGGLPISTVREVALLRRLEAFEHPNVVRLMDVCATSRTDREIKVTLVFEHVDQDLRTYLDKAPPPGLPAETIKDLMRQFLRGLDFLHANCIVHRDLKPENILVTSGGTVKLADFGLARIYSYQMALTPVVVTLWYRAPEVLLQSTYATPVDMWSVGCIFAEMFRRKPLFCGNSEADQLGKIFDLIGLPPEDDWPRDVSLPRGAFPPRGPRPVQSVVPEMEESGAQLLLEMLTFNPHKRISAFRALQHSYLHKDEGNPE
CDK4/CCND3, sequence (P30281 whole entry partner): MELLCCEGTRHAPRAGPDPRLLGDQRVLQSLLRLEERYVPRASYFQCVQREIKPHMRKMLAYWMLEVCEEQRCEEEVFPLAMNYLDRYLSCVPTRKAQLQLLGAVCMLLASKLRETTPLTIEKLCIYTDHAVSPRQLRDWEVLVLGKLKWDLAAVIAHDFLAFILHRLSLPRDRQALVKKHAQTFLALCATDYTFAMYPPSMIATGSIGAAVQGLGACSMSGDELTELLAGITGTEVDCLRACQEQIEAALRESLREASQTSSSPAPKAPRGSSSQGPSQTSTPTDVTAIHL
In short: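 CDK4/CCND3 at 1.5 nM was preincubated with compound for 20 min at 23 °C, then reacted for 60 min with 1 mM ATP and 50 nM ULight-4E-BP1 (Thr37/46) peptide. The reaction was stopped with EDTA, and phosphorylation was read by HTRF with a Eu-anti-phospho antibody. IC50 values came from 11-point half-log titrations, typically from 10 μM.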

[1] = x = IC50 25-250 nM, read-out: CDK2/CCNE IC50 (25-250 nM)
[2] = x = IC50 >250 nM, read-out: CDK6/CCND IC50 (>250 nM column)
[3] = x = IC50 <25 nM, read-out: CDK2/CCNE IC50 (<25 nM)
[4] = x = IC50 >250 nM, read-out: CDK2/CCNE IC50 (>250 nM column)
[5] = x = IC50 <25 nM, read-out: CDK6/CCND IC50 (<25 nM)

CDK1/CCNB1, sequence (P06493 whole entry): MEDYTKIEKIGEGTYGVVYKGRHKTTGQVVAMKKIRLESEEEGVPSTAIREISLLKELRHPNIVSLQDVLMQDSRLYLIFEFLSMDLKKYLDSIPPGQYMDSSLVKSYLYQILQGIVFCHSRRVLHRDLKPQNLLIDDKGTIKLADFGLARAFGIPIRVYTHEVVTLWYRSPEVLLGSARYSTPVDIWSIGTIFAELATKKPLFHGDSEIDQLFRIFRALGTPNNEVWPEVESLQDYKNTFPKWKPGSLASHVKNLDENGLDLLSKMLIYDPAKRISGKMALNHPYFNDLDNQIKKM
CDK1/CCNB1, sequence (P14635 whole entry partner): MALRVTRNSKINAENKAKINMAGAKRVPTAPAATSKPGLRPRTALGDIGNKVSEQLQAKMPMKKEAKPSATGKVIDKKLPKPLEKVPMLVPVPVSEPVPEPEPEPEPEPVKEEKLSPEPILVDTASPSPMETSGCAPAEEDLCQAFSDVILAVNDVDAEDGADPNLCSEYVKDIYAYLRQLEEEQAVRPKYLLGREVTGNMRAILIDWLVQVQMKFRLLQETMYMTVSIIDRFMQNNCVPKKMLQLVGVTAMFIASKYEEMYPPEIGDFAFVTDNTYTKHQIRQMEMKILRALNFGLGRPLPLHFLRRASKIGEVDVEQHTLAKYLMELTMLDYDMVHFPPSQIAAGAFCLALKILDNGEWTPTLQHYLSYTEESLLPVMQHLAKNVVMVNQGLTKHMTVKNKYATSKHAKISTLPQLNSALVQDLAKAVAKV

| Structure (SMILES) | IC50 (CDK1/CCNB1) | IC50 (CDK2/CCNE1; [1]) | IC50 (CDK6/CCND1; [2]) | IC50 (CDK4/CCND3) | IC50 (CDK2/CCNE1; [3]) | IC50 (CDK2/CCNE1; [4]) | IC50 (CDK6/CCND1; [5]) |
| --- | --- | --- | --- | --- | --- | --- | --- |
| CS(=O)(=O)c1ccc(Nc2cc3c(C#Cc4ccnc(C(F)F)c4)nccc3cn2)cc1 [Ex 529, 5-((2-(difluoromethyl)pyridin-4-yl)ethynyl)-N-(4-(methylsulfonyl)phenyl)-2,6-naphthyridin-3-amine] | > 250 nM | 25 to 250 nM | > 250 nM | > 250 nM | – | – | – |
| CS(=O)(=O)c1ccc(Nc2cc3c(C#Cc4ccc(Cl)c(F)c4N)nccc3cn2)cc1 [Ex 530, 5-((2-amino-4-chloro-3-fluorophenyl)ethynyl)-N-(4-(methylsulfonyl)phenyl)-2,6-naphthyridin-3-amine] | > 250 nM | 25 to 250 nM | > 250 nM | > 250 nM | – | – | – |
| CS(=O)(=O)c1ccc(Nc2cc3c(C#Cc4n[nH]c5c4CCC5)nccc3cn2)cc1 [Ex 531, N-(4-(methylsulfonyl)phenyl)-5-((1,4,5,6-tetrahydrocyclopenta[c]pyrazol-3-yl)ethynyl)-2,6-naphthyridin-3-amine] | > 250 nM | 25 to 250 nM | > 250 nM | > 250 nM | – | – | – |
| CS(=O)(=O)c1ccc(Nc2cc3c(C#Cc4ccc5c(C#N)c[nH]c5c4)nccc3cn2)cc1 [Ex 532, 6-((7-((4-(methylsulfonyl)phenyl)amino)-2,6-naphthyridin-1-yl)ethynyl)-1H-indole-3-carbonitrile] | > 250 nM | 25 to 250 nM | > 250 nM | > 250 nM | – | – | – |
| CS(=O)(=O)c1ccc(Nc2cc3c(C#Cc4cc(CO)cnc4N)nccc3cn2)cc1 [Ex 533, (6-amino-5-((7-((4-(methylsulfonyl)phenyl)amino)-2,6-naphthyridin-1-yl)ethynyl)pyridin-3-yl)methanol] | > 250 nM | 25 to 250 nM | > 250 nM | > 250 nM | – | – | – |
| CS(=O)(=O)c1ccc(Nc2cc3c(C#Cc4cnc(N)c(OC(F)F)c4)nccc3cn2)cc1 [Ex 534, 5-((6-amino-5-(difluoromethoxy)pyridin-3-yl)ethynyl)-N-(4-(methylsulfonyl)phenyl)-2,6-naphthyridin-3-amine] | > 250 nM | 25 to 250 nM | > 250 nM | > 250 nM | – | – | – |
| CS(=O)(=O)c1ccc(Nc2cc3c(C#Cc4cccc5ncnn45)nccc3cn2)cc1 [Ex 535, 5-([1,2,4]triazolo[1,5-a]pyridin-5-ylethynyl)-N-(4-(methylsulfonyl)phenyl)-2,6-naphthyridin-3-amine] | > 250 nM | 25 to 250 nM | > 250 nM | > 250 nM | – | – | – |
| CS(=O)(=O)c1ccc(Nc2cc3c(C#Cc4cnc(C#N)c(N)c4)nccc3cn2)cc1 [Ex 536, 3-amino-5-((7-((4-(methylsulfonyl)phenyl)amino)-2,6-naphthyridin-1-yl)ethynyl)picolinonitrile] | > 250 nM | 25 to 250 nM | > 250 nM | > 250 nM | – | – | – |
| CS(=O)(=O)c1ccc(Nc2cc3c(C#Cc4cnncc4N)nccc3cn2)cc1 [Ex 537, 5-((5-aminopyridazin-4-yl)ethynyl)-N-(4-(methylsulfonyl)phenyl)-2,6-naphthyridin-3-amine] | > 250 nM | – | > 250 nM | > 250 nM | < 25 nM | – | – |
| CN(C)c1ncc(C#Cc2nccc3cnc(Nc4ccc(S(C)(=O)=O)cc4)cc23)cn1 [Ex 538, 5-((2-(dimethylamino)pyrimidin-5-yl)ethynyl)-N-(4-(methylsulfonyl)phenyl)-2,6-naphthyridin-3-amine] | > 250 nM | 25 to 250 nM | > 250 nM | > 250 nM | – | – | – |
| CS(=O)(=O)c1ccc(Nc2cc3c(C#Cc4ccc(OC(F)F)nc4)nccc3cn2)cc1 [Ex 539, 5-((6-(difluoromethoxy)pyridin-3-yl)ethynyl)-N-(4-(methylsulfonyl)phenyl)-2,6-naphthyridin-3-amine] | > 250 nM | 25 to 250 nM | > 250 nM | > 250 nM | – | – | – |
| Cc1nc(C#Cc2nccc3cnc(Nc4ccc(S(C)(=O)=O)cc4)cc23)sc1C [Ex 540, 5-((4,5-dimethylthiazol-2-yl)ethynyl)-N-(4-(methylsulfonyl)phenyl)-2,6-naphthyridin-3-amine] | > 250 nM | – | > 250 nM | > 250 nM | – | > 250 nM | – |
| Cc1nc(N)nc(C)c1C#Cc1nccc2cnc(Nc3ccc(S(C)(=O)=O)cc3)cc12 [Ex 541, 5-((2-amino-4,6-dimethylpyrimidin-5-yl)ethynyl)-N-(4-(methylsulfonyl)phenyl)-2,6-naphthyridin-3-amine] | > 250 nM | 25 to 250 nM | > 250 nM | > 250 nM | – | – | – |
| CC(C)(O)c1nc2ccc(C#Cc3nccc4cnc(Nc5ccc(S(C)(=O)=O)cc5)cc34)cc2[nH]1 [Ex 542, 2-(6-((7-((4-(methylsulfonyl)phenyl)amino)-2,6-naphthyridin-1-yl)ethynyl)-1H-benzo[d]imidazol-2-yl)propan-2-ol] | > 250 nM | – | > 250 nM | > 250 nM | < 25 nM | – | – |
| CC(C)(O)Cn1cnc2ccc(C#Cc3nccc4cnc(Nc5ccc(S(C)(=O)=O)cc5)cc34)cc21 [Ex 543, 2-methyl-1-(6-((7-((4-(methylsulfonyl)phenyl)amino)-2,6-naphthyridin-1-yl)ethynyl)-1H-benzo[d]imidazol-1-yl)propan-2-ol] | > 250 nM | – | > 250 nM | > 250 nM | – | > 250 nM | – |
| CNc1ccncc1C#Cc1nccc2cnc(Nc3ccc(S(C)(=O)=O)cc3)cc12 [Ex 547, 5-((4-(methylamino)pyridin-3-yl)ethynyl)-N-(4-(methylsulfonyl)phenyl)-2,6-naphthyridin-3-amine] | > 250 nM | – | > 250 nM | > 250 nM | – | > 250 nM | – |
| CS(=O)(=O)c1ccc(Nc2cc3c(C#Cc4ccnc5[nH]ncc45)nccc3cn2)cc1 [Ex 548, 5-((1H-pyrazolo[3,4-b]pyridin-4-yl)ethynyl)-N-(4-(methylsulfonyl)phenyl)-2,6-naphthyridin-3-amine] | > 250 nM | 25 to 250 nM | > 250 nM | > 250 nM | – | – | – |
| CS(=O)(=O)c1ccc(Nc2cc3c(C#Cc4cc(F)c(N)c(F)c4)nccc3cn2)cc1 [Ex 549, 5-((4-amino-3,5-difluorophenyl)ethynyl)-N-(4-(methylsulfonyl)phenyl)-2,6-naphthyridin-3-amine] | > 250 nM | 25 to 250 nM | > 250 nM | > 250 nM | – | – | – |
| CS(=O)(=O)c1ccc(Nc2cc3c(C#Cc4cnn(CC(F)(F)F)c4)nccc3cn2)cc1 [Ex 550, N-(4-(methylsulfonyl)phenyl)-5-((1-(2,2,2-trifluoroethyl)-1H-pyrazol-4-yl)ethynyl)-2,6-naphthyridin-3-amine] | > 250 nM | 25 to 250 nM | > 250 nM | > 250 nM | – | – | – |
| CS(=O)(=O)c1ccc(Nc2cc3c(C#Cc4n[nH]c5cccc(F)c45)nccc3cn2)cc1 [Ex 551, 5-((4-fluoro-1H-indazol-3-yl)ethynyl)-N-(4-(methylsulfonyl)phenyl)-2,6-naphthyridin-3-amine] | > 250 nM | 25 to 250 nM | – | > 250 nM | – | – | < 25 nM |
| CS(=O)(=O)c1ccc(Nc2cc3c(C#Cc4ncc(N)nc4Cl)nccc3cn2)cc1 [Ex 552, 5-((5-amino-3-chloropyrazin-2-yl)ethynyl)-N-(4-(methylsulfonyl)phenyl)-2,6-naphthyridin-3-amine] | > 250 nM | 25 to 250 nM | – | > 250 nM | – | – | < 25 nM |
